Experimental data taken from publication PMC4764201, “High Throughput Screen for Escherichia coli Twin Arginine Translocation (Tat) Inhibitors” (PLoS ONE, 2016).

What was measured:
[1] = target: T1, E. coli Tat machinery (IMVs containing overproduced TatABC) (Escherichia coli, UniProt P69423+P69425+P69428); test: In vitro Tat transport assay of pre-SufI into IMVs, ATP as energy source; format: biochemical; settings: hit compound 20 μM; ATP 1 mM
Description: (§1) To directly test for inhibition of Tat transport, a gel-based in vitro Tat transport assay was performed using pre-SufI, an authentic Tat precursor protein [7]. In short, this assay consists of incubating a Tat substrate and a Δψ-generating energy source with inverted membrane vesicles (IMVs) containing overproduced TatABC, digesting remaining external protein with a protease, and then analyzing via SDS-PAGE. This assay was run twice using NADH and ATP (if warranted) as energy sources to generate the necessary Δψ. NADH generates a Δψ using respiratory proteins (i.e., the NADH dehydrogenase and cytochrome bo3 ubiquinol oxidase complexes) and ATP generates a Δψ by reversal of ATP synthase. A true Tat inhibitor would survive both assays. In contrast, a respiration inhibitor is expected to reduce Tat transport when only one of the two energy sources is used (except for an ionophore).
Fig 8 Effect of Hits from the Local HTS on In Vitro Tat Transport. (A) Tat transport assays of pre-SufI using NADH to generate a Δψ. […] Samples were treated with the protease proteinase K, run on SDS-PAGE, and analyzed by in-gel fluorescence imaging. Assays were run in duplicate. Band intensity corresponds to the amount of protein transported into the IMV lumen. The following 7 compounds survived this screen: 1^JS, 51^JS, 55^JS, 111^JS, 181^JS, 202^JS, and 140^JS (boxed in red). (B) Tat transport assays of pre-SufI using ATP to generate a Δψ. All 7 compounds surviving the screen in (A) were tested using a Tat transport assay performed identically to those in (A) except that ATP (1 mM) was used in place of NADH. […]
Isolation of inverted membrane vesicles (IMVs), Western blot analyses and purification of pre-SufI-IAC were performed as described previously. […] The presence of a Δψ was determined by measuring oxonol VI fluorescence in presence of Tat^+ IMVs (A280 = 0.5), as described previously, except that the translocation buffer lacked BSA. Steady-state fluorescence spectra and fluorescence intensities of whole cells producing mCherry proteins were determined with an SLM-8100 spectrofluorometer.

[2] = target: T1, E. coli Tat machinery (IMVs containing overproduced TatABC); test: In vitro Tat transport assay of pre-SufI into IMVs, NADH as energy source; format: biochemical; settings: hit compound 20 μM; NADH 4 mM; 37°C 30 min
Description: as §1
Fig 8 Effect of Hits from the Local HTS on In Vitro Tat Transport. (A) Tat transport assays of pre-SufI using NADH to generate a Δψ. Inverted membrane vesicles (IMVs; A280 = 5.0), the fluorescent substrate pre-SufI-IAC^Atto565 (90 nM), and NADH (4 mM) were incubated at 37°C for 30 min with DMSO (control) or with hit compound (20 μM). Samples were treated with the protease proteinase K, run on SDS-PAGE, and analyzed by in-gel fluorescence imaging. Assays were run in duplicate. Band intensity corresponds to the amount of protein transported into the IMV lumen. The following 7 compounds survived this screen: 1^JS, 51^JS, 55^JS, 111^JS, 181^JS, 202^JS, and 140^JS (boxed in red). (B) Tat transport assays of pre-SufI using ATP to generate a Δψ. All 7 compounds surviving the screen in (A) were tested using a Tat transport assay performed identically to those in (A) except that ATP (1 mM) was used in place of NADH. Compound 55^JS was eliminated by this assay—the other 6 compounds survived (boxed in red). (C) Chemical structure of compound 55^JS, N-(4,7-Dioxo-4,7-dihydro-2,1,3-benzoxadiazol-5-yl)acetamide.
Isolation of inverted membrane vesicles (IMVs), Western blot analyses and purification of pre-SufI-IAC were performed as described previously. Western blots were performed using rabbit anti-mCherry antibodies (1:10,000 dilution) in the presence of 0.1% Triton X-100 and 0.1% Tween 20. The pre-SufI-IAC protein was labeled with Atto565 maleimide, and the resultant fluorescent protein, pre-SufI-IAC^Atto565, was used as a substrate for the in vitro Tat transport assays (A280 = 5.0), as described previously. The presence of a Δψ was determined by measuring oxonol VI fluorescence in presence of Tat^+ IMVs (A280 = 0.5), as described previously, except that the translocation buffer lacked BSA. Steady-state fluorescence spectra and fluorescence intensities of whole cells producing mCherry proteins were determined with an SLM-8100 spectrofluorometer.
Supplementary file pone.0149659.s003.tiff: S3 Fig IC50's for Hit Compound 181^JS. (A) The total cellular mCherry fluorescence (live cell assay; n = 1), (B) the in vitro NADH-dependent Tat transport efficiency of pre-SufI (n = 1), and (C) the maximum transmembrane electrical potential gradient (n = 1) were measured for a range of concentrations of compound 181^JS (S2E Fig). (D) SDS-PAGE gel showing in-gel fluorescence data used in (B). For (A), cells expressing spTorA-mCherry-SsrA were grown under Tat^++ conditions in a 384-well plate in the presence of 0, 0.08, 0.15, 0.3, 0.63, 1.25, 2.5, 5, 10, 20, or 40 μM compound 181^JS, as described for the HTS assay (see Methods). For (B) and (C), IMVs were incubated with the same concentrations of compound 181^JS prior to initiation of Tat transport and Δψ generation by the addition of NADH, as described previously. The red curves are best-fits using y = d + (100-d)/(1+(x/IC50)^b), where b is a slope factor and d is the high concentration asymptote. (TIFF) Click here for additional data file.

T1 sequence (P69423 2-258): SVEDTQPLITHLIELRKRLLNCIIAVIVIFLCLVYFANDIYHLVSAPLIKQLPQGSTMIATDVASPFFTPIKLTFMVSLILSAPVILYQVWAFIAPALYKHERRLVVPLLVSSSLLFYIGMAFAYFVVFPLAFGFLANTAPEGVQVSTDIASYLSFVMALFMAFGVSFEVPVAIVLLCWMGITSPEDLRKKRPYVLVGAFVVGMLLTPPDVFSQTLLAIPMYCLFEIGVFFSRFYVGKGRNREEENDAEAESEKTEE
T1 sequence (P69425 whole entry): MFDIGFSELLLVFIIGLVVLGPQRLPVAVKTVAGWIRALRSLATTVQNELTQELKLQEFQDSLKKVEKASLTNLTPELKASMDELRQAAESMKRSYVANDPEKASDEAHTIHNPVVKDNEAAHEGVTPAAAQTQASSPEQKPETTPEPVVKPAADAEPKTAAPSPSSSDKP
T1 sequence (P69428 whole entry): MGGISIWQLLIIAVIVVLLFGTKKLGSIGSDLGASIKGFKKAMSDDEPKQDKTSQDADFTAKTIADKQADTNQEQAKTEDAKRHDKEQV

With `CC(=O)NC1=CC(=O)c2nonc2C1=O` [Compound 55^JS, N-(4,7-dioxo-2,1,3-benzoxadiazol-5-yl)acetamide] the “outcome of ATP-dependent in vitro Tat transport screen (survival = visible inhibition of Tat transport)” value [1] was “eliminated” and the “outcome of NADH-dependent in vitro Tat transport screen (survival = visible inhibition of Tat transport)” value [2] was “survived”.
